Measured values published in the supplement of paper PMC10307832.

Columns and labels:
Experiment in all cases: relative viability (nuclei count vs DMSO), 5 days (fraction); higher = more cells survive
Tipifarnib + Vorinostat = compound: Cn1cncc1[C@@](N)(c1ccc(Cl)cc1)c1ccc2c(c1)c(-c1cccc(Cl)c1)cc(=O)n2C [Tipifarnib] + O=C(CCCCCCC(=O)Nc1ccccc1)NO [Vorinostat] (partner 1 µM)
Method in brief: (§1)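 Lung cancer cell lines in 1536-well plates got either a single drug or a fixed anchor-drug dose together with five library-drug doses (not always all listed) in √10 steps, by pin tool, on the day after seeding. Nuclei were counted after 5 days, and relative viability is the treated-to-vehicle ratio of nuclei counts. Values are medians of duplicate plates.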

Tipifarnib + Pemetrexed = compound: Cn1cncc1[C@@](N)(c1ccc(Cl)cc1)c1ccc2c(c1)c(-c1cccc(Cl)c1)cc(=O)n2C [Tipifarnib] + Nc1nc2[nH]cc(CCc3ccc(C(=O)N[C@@H](CCC(=O)O)C(=O)O)cc3)c2c(=O)[nH]1 [Pemetrexed] (partner 0.2 µM)
Method in brief: as §1

Tipifarnib + Dasatinib = compound: Cn1cncc1[C@@](N)(c1ccc(Cl)cc1)c1ccc2c(c1)c(-c1cccc(Cl)c1)cc(=O)n2C [Tipifarnib] + Cc1nc(Nc2ncc(C(=O)Nc3c(C)cccc3Cl)s2)cc(N2CCN(CCO)CC2)n1 [Dasatinib] (partner 0.075 µM)
Method in brief: as §1

Tipifarnib + Palbociclib = compound: Cn1cncc1[C@@](N)(c1ccc(Cl)cc1)c1ccc2c(c1)c(-c1cccc(Cl)c1)cc(=O)n2C [Tipifarnib] + CC(=O)c1c(C)c2cnc(Nc3ccc(N4CCNCC4)cn3)nc2n(C2CCCC2)c1=O [Palbociclib] (partner 0.5 µM)
Method in brief: as §1

Row | Cell Line | relative viability (Tipifarnib + Vorinostat; first compound 0.01 µM) | relative viability (Tipifarnib + Vorinostat; first compound 0.03162 µM) | relative viability (Tipifarnib + Vorinostat; first compound 0.1 µM) | relative viability (Tipifarnib + Vorinostat; first compound 0.3162 µM) | relative viability (Tipifarnib + Vorinostat; first compound 1 µM) | relative viability (Tipifarnib + Pemetrexed; first compound 0.01 µM) | relative viability (Tipifarnib + Pemetrexed; first compound 0.03162 µM) | relative viability (Tipifarnib + Pemetrexed; first compound 0.1 µM) | relative viability (Tipifarnib + Pemetrexed; first compound 0.3162 µM) | relative viability (Tipifarnib + Pemetrexed; first compound 1 µM) | relative viability (Tipifarnib + Dasatinib; first compound 0.01 µM) | relative viability (Tipifarnib + Dasatinib; first compound 0.03162 µM) | relative viability (Tipifarnib + Dasatinib; first compound 0.1 µM) | relative viability (Tipifarnib + Dasatinib; first compound 0.3162 µM) | relative viability (Tipifarnib + Dasatinib; first compound 1 µM) | relative viability (Tipifarnib + Palbociclib; first compound 0.01 µM) | relative viability (Tipifarnib + Palbociclib; first compound 0.03162 µM) | relative viability (Tipifarnib + Palbociclib; first compound 0.1 µM) | relative viability (Tipifarnib + Palbociclib; first compound 0.3162 µM) | relative viability (Tipifarnib + Palbociclib; first compound 1 µM)
1 | NCI-H441 | 1.08 | 0.724 | 0.68 | 0.431 | 0.44 | 0.269 | 0.286 | 0.294 | 0.307 | 0.254 | 0.592 | 0.516 | 0.484 | 0.396 | 0.277 | 0.197 | 0.161 | 0.188 | 0.144 | 0.164
2 | NCI-H460 | 0.734 | 0.329 | 0.283 | 0.116 | 0.116 | 0.0634 | 0.0696 | 0.0701 | 0.06 | 0.0551 | 0.512 | 0.514 | 0.307 | 0.146 | 0.0594 | 0.178 | 0.187 | 0.096 | 0.0611 | 0.0359
3 | NCI-H520 | 0.781 | 0.695 | 0.599 | 0.515 | 0.47 | 0.726 | 0.652 | 0.574 | 0.511 | 0.528 | 0.163 | 0.185 | 0.183 | 0.163 | 0.142 | 0.181 | 0.238 | 0.254 | 0.162 | 0.2
4 | NCI-H522 | 0.908 | 0.761 | 0.835 | 0.776 | 0.806 | 1.08 | 1.2 | 0.886 | 0.973 | 0.839 | 0.95 | 0.912 | 0.861 | 0.82 | 0.788 | 0.9 | 1.2 | 1.07 | 0.898 | 0.923
5 | NCI-H647 | 0.321 | 0.326 | 0.352 | 0.157 | 0.13 | 0.209 | 0.213 | 0.157 | 0.139 | 0.116 | 0.205 | 0.159 | 0.167 | 0.127 | 0.0682 | 0.406 | 0.288 | 0.297 | 0.159 | 0.138
6 | NCI-H650 | 0.366 | 0.325 | 0.346 | 0.249 | 0.189 | 1.02 | 0.917 | 0.846 | 0.626 | 0.36 | 0.421 | 0.375 | 0.366 | 0.284 | 0.266 | 0.368 | 0.321 | 0.379 | 0.269 | 0.233
7 | NCI-H661 | 0.822 | 0.657 | 0.684 | 0.558 | 0.569 | 0.881 | 0.849 | 0.786 | 0.809 | 0.755 | 1.11 | 0.949 | 0.914 | 0.601 | 0.619 | 0.435 | 0.349 | 0.36 | 0.315 | 0.35
8 | NCI-H838 | 0.665 | 0.646 | 0.606 | 0.568 | 0.588 | 0.259 | 0.264 | 0.293 | 0.269 | 0.269 | 0.322 | 0.296 | 0.233 | 0.263 | 0.237 | 0.223 | 0.206 | 0.214 | 0.187 | 0.195
9 | NCI-H1355 | 0.625 | 0.544 | 0.409 | 0.466 | 0.301 | 1.04 | 0.966 | 0.81 | 0.776 | 0.745 | 0.684 | 0.687 | 0.524 | 0.496 | 0.443 | 0.399 | 0.398 | 0.351 | 0.325 | 0.322
10 | NCI-H1395 | 0.673 | 0.53 | 0.603 | 0.523 | 0.393 | 0.826 | 0.76 | 0.746 | 0.651 | 0.508 | 0.421 | 0.348 | 0.342 | 0.34 | 0.381 | 0.646 | 0.617 | 0.591 | 0.503 | 0.5
11 | NCI-H1437 | 0.837 | 0.796 | 0.747 | 0.646 | 0.601 | 0.32 | 0.344 | 0.322 | 0.285 | 0.297 | 0.446 | 0.482 | 0.452 | 0.416 | 0.214 | 0.327 | 0.357 | 0.336 | 0.288 | 0.303
12 | NCI-H1650 | 0.415 | 0.399 | 0.306 | 0.253 | 0.212 | 0.427 | 0.379 | 0.329 | 0.271 | 0.278 | 0.274 | 0.254 | 0.24 | 0.22 | 0.202 | 0.295 | 0.211 | 0.243 | 0.205 | 0.183
13 | NCI-H1651 | 0.545 | 0.54 | 0.537 | 0.507 | 0.335 | 0.592 | 0.636 | 0.676 | 0.635 | 0.522 | 0.474 | 0.209 | 0.389 | 0.363 | 0.196 | 0.502 | 0.52 | 0.544 | 0.502 | 0.511
14 | NCI-H1666 | 1.05 | 0.874 | 1.02 | 0.883 | 0.878 | 0.908 | 0.889 | 0.766 | 0.844 | 0.842 | 0.791 | 0.779 | 0.785 | 0.748 | 0.605 | 0.684 | 0.676 | 0.695 | 0.626 | 0.663
15 | NCI-H1734 | 0.791 | 0.553 | 0.534 | 0.368 | 0.364 | 0.38 | 0.442 | 0.428 | 0.419 | 0.394 | 0.465 | 0.389 | 0.347 | 0.274 | 0.22 | 0.353 | 0.327 | 0.323 | 0.298 | 0.261
16 | NCI-H1755 | 0.75 | 0.764 | 0.781 | 0.739 | 0.596 | 0.41 | 0.524 | 0.446 | 0.474 | 0.425 | 0.477 | 0.39 | 0.365 | 0.348 | 0.271 | 0.464 | 0.471 | 0.463 | 0.445 | 0.465
